Reference: patent US8518947B2, “(Heterocycle/tetrahydropyridine)-(piperazinyl)-1-alcanone and (heterocycle/dihydropyrrolidine)-(piperazinyl)-1-alcanone derivatives, and use thereof as p75 inhibitors” (Sanofi, priority 2009, dated 2013)
Where a name gives a salt, the structure may show the parent alone.

Row | Structure (SMILES) | melting point [°C]
1 | O=C(CN1CC2CCC(C1)N2c1ncc(F)cn1)N1CC=C(c2csc3ccccc23)CC1 | 172 to 174
2 | O=C(O)c1ccc(N2C3CCC2CN(CC(=O)N2CC=C(c4cccc5ccsc45)CC2)C3)nc1 [71] | 121 to 122
3 | O=C(CN1CC2CCC(C1)N2c1ncc(F)cn1)N1CC=C(c2c[nH]c3cc(F)ccc23)CC1 (as salt: oxalate) | 95 to 96
4 | COC(=O)c1ccc(N2C3CCC2CN(CC(=O)N2CC=C(c4cccc5ccoc45)CC2)C3)nc1 | 158 to 159
5 | O=C(CN1CCN(c2ccnc3cc(Cl)ccc23)CC1)N1CC=C(c2cccc3ccsc23)CC1 [Compound 106, 1-(4-benzo[b]thiophen-7-yl-3,6-dihydro-2H-pyridin-1-yl)-2-[4-(7-chloroquinolin-4-yl)piperazin-1-yl]ethanone] | 90 to 91
6 | O=C(CN1CC2CCC(C1)N2c1cccnc1)N1CC=C(c2cccc3ccoc23)CC1 | 121 to 123
7 | O=C(O)c1ccc(N2C3CCC2CN(CC(=O)N2CC=C(c4cccc5ccsc45)C2)C3)nc1 | 189 to 190
8 | N#Cc1ccc(N2C3CCC2CN(CC(=O)N2CC=C(c4cccc5ccoc45)CC2)C3)nc1 | 184 to 185
9 | O=C(O)c1ccc(N2C3CCC2CN(CC(=O)N2CC=C(c4nccc5sccc45)CC2)C3)nc1 | 159 to 160
10 | O=C(CN1CCN(c2ccc(C(F)(F)F)cn2)C(=O)C1)N1CC=C(c2cccc3ccoc23)C1 [Compound 83, 4-[2-(3-benzofuran-7-yl-2,5-dihydropyrrol-1-yl)-2-oxoethyl]-1-(5-trifluoromethylpyridin-2-yl)piperazin-2-one] | 184 to 186
11 | COC(=O)c1ccc(N2C3CCC2CN(CC(=O)N2CC=C(c4cccc5ccsc45)C2)C3)nc1 | 172 to 173
12 | O=C(O)c1ccc(N2C3CCC2CN(CC(=O)N2CC=C(c4cccc5ccsc45)CC2)C3)nc1 [85] | 191 to 192
13 | O=C(CN1CC2CCC(C1)N2c1ncc(F)cn1)N1CC=C(c2nccc3sccc23)CC1 | 167 to 168
14 | O=C(CN1CCN(c2cccc(Cl)n2)CC1)N1CC=C(c2c[nH]c3ccccc23)CC1 [Compound 108, 2-[4-(6-chloropyridin-2-yl)piperazin-1-yl]-1-[4-(1H-indol-3-yl)-3,6-dihydro-2H-pyridin-1-yl]ethanone] | 202 to 204
15 | O=C(CN1CCN(c2ccc(C(F)(F)F)cn2)C(=O)C1)N1CC=C(c2nccc3sccc23)CC1 [Compound 118, 4-[2-oxo-2-(4-thieno[3,2-c]pyridin-4-yl-3,6-dihydro-2H-pyridin-1-yl)ethyl]-1-(5-trifluoromethylpyridin-2-yl)piperazin-2-one] | 145 to 148
16 | O=C(CN1CCN(c2ccc3ccccc3n2)CC1)N1CC=C(c2c[nH]c3ccccc23)CC1 [Compound 98, 1-[4-(1H-indol-3-yl)-3,6-dihydro-2H-pyridin-1-yl]-2-(4-quinolin-2-ylpiperazin-1-yl)ethanone] | 213 to 215

The next lines start with the values.

Row | melting point [°C] | Structure (SMILES)
17 | 157 to 158 | C[C@@H]1CN(c2ccc(Cl)cn2)C[C@H](C)N1CC(=O)N1CC=C(c2cccc3ccsc23)CC1 [Compound 101, 1-(4-benzo[b]thiophen-7-yl-3,6-dihydro-2H-pyridin-1-yl)-2-[(2S,6R)-4-(5-chloropyridin-2-yl)-2,6-dimethylpiperazin-1-yl]ethanone]
18 | 142 to 143 | O=C(CN1CCN(c2ccc(C(F)(F)F)cn2)CC1)N1CC=C(c2ccc3c(c2)OCCO3)CC1 [Compound 21, 1-[4-(2,3-dihydrobenzo[1,4]dioxin-6-yl)-3,6-dihydro-2H-pyridin-1-yl]-2-[4-(5-trifluoromethylpyridin-2-yl)piperazin-1-yl]ethanone]
19 | 174 to 175 | C[C@@H]1CN(c2ncc(F)cn2)C[C@H](C)N1CC(=O)N1CC=C(c2cccc3ccoc23)CC1 (as salt: HCl) [Compound 36, 1-(4-benzofuran-7-yl-3,6-dihydro-2H-pyridin-1-yl)-2-[(2S,6R)-4-(5-fluoropyrimidin-2-yl)-2,6-dimethylpiperazin-1-yl]ethanone]
20 | 218 to 220 | C[C@@H]1CN(c2cncnc2)C[C@H](C)N1CC(=O)N1CC=C(c2ccc3sccc3c2)CC1 [Compound 41, 1-(4-benzo[b]thiophen-5-yl-3,6-dihydro-2H-pyridin-1-yl)-2-((2S,6R)-2,6-dimethyl-4-pyrimidin-5-ylpiperazin-1-yl)ethanone]
21 | 161 to 162 | O=C(CN1CCN(c2ccc(C(F)(F)F)cn2)C(=O)C1)N1CC=C(c2ccc3c(c2)OCCO3)CC1 [Compound 49, 4-{2-[4-(2,3-dihydrobenzo[1,4]dioxin-6-yl)-3,6-dihydro-2H-pyridin-1-yl]-2-oxoethyl}-1-(5-trifluoromethylpyridin-2-yl)piperazin-2-one]
22 | 191 to 192 | Cc1cc2cc(C3=CCN(C(=O)CN4[C@H](C)CN(c5cncnc5)C[C@@H]4C)CC3)ccc2s1 [Compound 40, 2-((2S,6R)-2,6-dimethyl-4-pyrimidin-5-ylpiperazin-1-yl)-1-[4-(2-methylbenzo[b]thiophen-5-yl)-3,6-dihydro-2H-pyridin-1-yl]ethanone]
23 | 208 to 210 | COC(=O)c1ccc(N2C[C@@H](C)N(CC(=O)N3CC=C(c4cccc5ccsc45)CC3)[C@@H](C)C2)nc1 (as salt: HCl) [Compound 58, Methyl 6-{(3S,5R)-4-[2-(4-benzo[b]thiophen-7-yl-3,6-dihydro-2H-pyridin-1-yl)-2-oxoethyl]-3,5-dimethylpiperazin-1-yl}nicotinate]
24 | 217 to 218 | Cc1cc2cc(C3=CCN(C(=O)CN4[C@H](C)CN(c5ccc(C(F)(F)F)nc5)C[C@@H]4C)CC3)ccc2s1 [Compound 39, 2-[(2S,6R)-2,6-dimethyl-4-(6-trifluoromethylpyridin-3-yl)piperazin-1-yl]-1-[4-(2-methylbenzo[b]thiophen-5-yl)-3,6-dihydro-2H-pyridin-1-yl]ethanone]
25 | 130 to 132 | COC(=O)c1ccc(N2C[C@@H](C)N(CC(=O)N3CC=C(c4ccc5sccc5c4)CC3)[C@@H](C)C2)nc1 [Compound 52, Methyl 6-{(3S,5R)-4-[2-(4-benzo[b]thiophen-5-yl-3,6-dihydro-2H-pyridin-1-yl)-2-oxoethyl]-3,5-dimethylpiperazin-1-yl}nicotinate]
26 | 177 to 179 | Cc1cc2cc(C3=CCN(C(=O)CN4CC5CCC(C4)N5c4ncc(F)cn4)CC3)ccc2s1
27 | 148 to 150 | COC(=O)c1ccc(N2C[C@@H](C)N(CC(=O)N3CC=C(c4ccc5sc(C)cc5c4)CC3)[C@@H](C)C2)nc1 [Compound 61, Methyl 6-((3S,5R)-3,5-dimethyl-4-{2-[4-(2-methylbenzo[b]thiophen-5-yl)-3,6-dihydro-2H-pyridin-1-yl]-2-oxoethyl}piperazin-1-yl)nicotinate]
28 | 225 to 226 | C[C@@H]1CN(c2ccc(C(F)(F)F)nc2)C[C@H](C)N1CC(=O)N1CC=C(c2cccc3ccsc23)CC1 (as salt: HCl) [Compound 54, 1-(4-benzo[b]thiophen-7-yl-3,6-dihydro-2H-pyridin-1-yl)-2-[(2S,6R)-2,6-dimethyl-4-(6-trifluoromethylpyridin-3-yl)piperazin-1-yl)ethanone]
29 | 150 to 151 | COC(=O)c1ccc(N2C3CCC2CN(CC(=O)N2CC=C(c4ccc5sccc5c4)CC2)C3)nc1
30 | 198 to 200 | C[C@@H]1CN(c2ccc(C(F)(F)F)cn2)C[C@H](C)N1CC(=O)N1CC=C(c2c[nH]c3ccccc23)CC1 [Compound 97, 2-[(2S,6R)-2,6-dimethyl-4-(5-trifluoromethylpyridin-2-yl)piperazin-1-yl]-1-[4-(1H-indol-3-yl)-3,6-dihydro-2H-pyridin-1-yl]ethanone]
31 | 171 to 172 | Cc1cc2cc(C3=CCN(C(=O)CN4CC5CCC(C4)N5c4ccc(C#N)cn4)CC3)ccc2s1
32 | 140 to 145 | C[C@@H]1CN(c2ccc(-c3nccs3)cn2)C[C@H](C)N1CC(=O)N1CC=C(c2cccc3ccoc23)CC1 (as salt: oxalate) [Compound 119, 1-(4-benzofuran-7-yl-3,6-dihydro-2H-pyridin-1-yl)-2-[(2S,6R)-2,6-dimethyl-4-(5-thiazol-2-ylpyridin-2-yl)piperazin-1-yl]ethanone]
33 | 143 to 146 | O=C(CN1CCN(c2ccc(C(F)(F)F)cn2)C(=O)C1)N1CC=C(c2cccc3ccsc23)CC1 [Compound 31, 4-[2-(4-benzo[b]thiophen-7-yl-3,6-dihydro-2H-pyridin-1-yl)-2-oxoethyl]-1-(5-trifluoromethylpyridin-2-yl)piperazin-2-one]
34 | 200 to 201 | C[C@@H]1CN(c2ccc(C(F)(F)F)nc2)C[C@H](C)N1CC(=O)N1CC=C(c2ccc3c(c2)OCCO3)CC1 [Compound 45, 1-[4-(2,3-dihydrobenzo[1,4]dioxin-6-yl)-3,6-dihydro-2H-pyridin-1-yl]-2-[(2S,6R)-2,6-dimethyl-4-(6-trifluoromethylpyridin-3-yl)piperazin-1-yl]ethanone]
35 | 169 to 170 | O=C(CN1CCN(c2ccc(C(F)(F)F)cn2)C(=O)C1)N1CC=C(c2ccc3sccc3c2)CC1 [Compound 43, 4-[2-(4-benzo[b]thiophen-5-yl-3,6-dihydro-2H-pyridin-1-yl)-2-oxoethyl]-1-(5-trifluoromethylpyridin-2-yl)piperazin-2-one]
36 | 130 to 131 | C[C@@H]1CN(c2ncc(C(F)(F)F)cc2Cl)C[C@H](C)N1CC(=O)N1CC=C(c2cccc3ccoc23)CC1 [Compound 92, 1-(4-benzofuran-7-yl-3,6-dihydro-2H-pyridin-1-yl)-2-[(2S,6R)-4-(3-chloro-5-trifluoromethylpyridin-2-yl)-2,6-dimethylpiperazin-1-yl]ethanone]
37 | 205 to 206 | Cc1cc2cc(C3=CCN(C(=O)CN4[C@H](C)CN(c5ncc(F)cn5)C[C@@H]4C)CC3)ccc2s1 [Compound 38, 2-[(2S,6R)-4-(5-fluoropyrimidin-2-yl)-2,6-dimethylpiperazin-1-yl]-1-[4-(2-methylbenzo[b]thiophen-5-yl)-3,6-dihydro-2H-pyridin-1-yl]ethanone]
38 | 119 to 120 | C[C@@H]1CN(c2ccc(C(F)(F)F)nc2)C[C@H](C)N1CC(=O)N1CC=C(c2cccc3ccoc23)CC1 [Compound 37, 1-(4-benzofuran-7-yl-3,6-dihydro-2H-pyridin-1-yl)-2-[(2S,6R)-2,6-dimethyl-4-(6-trifluoromethylpyridin-3-yl)piperazin-1-yl]ethanone]
